From ChEMBL document CHEMBL1201862, “PubChem BioAssay data set” (2004)
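These data come from cells grown in 96-well plates and exposed to compound for 48 hours at five concentrations. GI50 = concentration required for 50% inhibition of growth.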 The source made the active and inactive calls. Cut-off read from the data, not from the text of the source: active = GI50 up to about 1.1 µM and inactive = higher.

Experiments:
Assay in all cases: inhibition of tumour cell growth, NCI panel, 48 h
OVCAR-8 = system: OVCAR-8
NCI-H460 = system: NCI-H460
ACHN = system: ACHN
SF-295 = system: SF-295
TK-10 = system: TK-10
RPMI-8226 = system: RPMI-8226
Hs-578T = system: Hs-578T
DU-145 = system: DU-145
LOX IMVI = system: LOX IMVI
CCRF-CEM = system: CCRF-CEM
IGROV-1 = system: IGROV-1
NCI-H522 = system: NCI-H522
OVCAR-5 = system: OVCAR-5
UACC-257 = system: UACC-257
786-0 = system: 786-0
HL-60 = system: HL-60
CAKI-1 = system: CAKI-1
M14 = system: M14
OVCAR-4 = system: OVCAR-4

| Compound | GI50 (OVCAR-8) | GI50 (NCI-H460) | GI50 (ACHN) | GI50 (SF-295) | GI50 (TK-10) | GI50 (RPMI-8226) | GI50 (Hs-578T) | GI50 (DU-145) | GI50 (LOX IMVI) | GI50 (CCRF-CEM) | GI50 (IGROV-1) | GI50 (NCI-H522) | GI50 (OVCAR-5) | GI50 (UACC-257) | GI50 (786-0) | GI50 (HL-60) | GI50 (CAKI-1) | GI50 (M14) | GI50 (OVCAR-4) |
| --- | --- | --- | --- | --- | --- | --- | --- | --- | --- | --- | --- | --- | --- | --- | --- | --- | --- | --- | --- |
| Nc1cc(OCc2ccccc2)c(OCc2ccccc2)cc1C=O | 26.4 µM (inactive) | 14.1 µM (inactive) | 26 µM (inactive) | 31.4 µM (inactive) | 15.3 µM (inactive) | 27 µM (inactive) | 42.4 µM (inactive) | 31.6 µM (inactive) | 26.2 µM (inactive) | 22.3 µM (inactive) | 31.2 µM (inactive) | 0.141 µM (active) | 55.2 µM (inactive) | 85.9 µM (inactive) | 17.5 µM (inactive) | 15.2 µM (inactive) | – | – | – |
| CC1OC23CCCCC2C(C#N)(C#N)C1(C#N)C(=N)O3 (stereo unspecified) | 20.7 µM (inactive) | 17.9 µM (inactive) | 19.9 µM (inactive) | 70 µM (inactive) | 22.5 µM (inactive) | – | 21.8 µM (inactive) | 24.3 µM (inactive) | 17.6 µM (inactive) | 5.94 µM (inactive) | 19.6 µM (inactive) | – | 22 µM (inactive) | 18 µM (inactive) | 12.8 µM (inactive) | 4.21 µM (inactive) | 6.9 µM (inactive) | 20.1 µM (inactive) | – |
| Brc1ccc(C2CC3(c4ccccc4)ON=C(c4ccccc4)N3c3ccccc3S2)cc1 (stereo unspecified) | > 100 µM (inactive) | > 100 µM (inactive) | > 100 µM (inactive) | > 100 µM (inactive) | > 100 µM (inactive) | – | > 100 µM (inactive) | > 100 µM (inactive) | > 100 µM (inactive) | > 100 µM (inactive) | > 100 µM (inactive) | > 100 µM (inactive) | > 100 µM (inactive) | > 100 µM (inactive) | > 100 µM (inactive) | > 100 µM (inactive) | – | > 100 µM (inactive) | > 100 µM (inactive) |
| COc1ccc(-n2cnc3c(NCC(=O)O)ncnc32)cc1 | > 100 µM (inactive) | > 100 µM (inactive) | > 100 µM (inactive) | > 100 µM (inactive) | > 100 µM (inactive) | > 100 µM (inactive) | > 100 µM (inactive) | > 100 µM (inactive) | > 100 µM (inactive) | 48.5 µM (inactive) | > 100 µM (inactive) | > 100 µM (inactive) | > 100 µM (inactive) | > 100 µM (inactive) | > 100 µM (inactive) | – | > 100 µM (inactive) | > 100 µM (inactive) | > 100 µM (inactive) |
| Cc1ccnc2nc3[nH]c4ccccc4c3cc12 | 66.8 µM (inactive) | > 100 µM (inactive) | > 100 µM (inactive) | > 100 µM (inactive) | > 100 µM (inactive) | > 100 µM (inactive) | > 100 µM (inactive) | > 100 µM (inactive) | > 100 µM (inactive) | 75 µM (inactive) | > 100 µM (inactive) | > 100 µM (inactive) | > 100 µM (inactive) | 89.5 µM (inactive) | 24.4 µM (inactive) | – | > 100 µM (inactive) | > 100 µM (inactive) | > 100 µM (inactive) |
| CC1(C)C/N=C/C(C)(OCc2ccccc2)C(=O)NC(C)(C)C/N=C/C(C)(OCc2ccccc2)C(=O)N1 (stereo unspecified) | > 10 µM (inactive) | > 10 µM (inactive) | > 10 µM (inactive) | > 10 µM (inactive) | > 10 µM (inactive) | > 10 µM (inactive) | > 10 µM (inactive) | > 10 µM (inactive) | > 10 µM (inactive) | > 10 µM (inactive) | > 10 µM (inactive) | – | > 10 µM (inactive) | > 10 µM (inactive) | > 10 µM (inactive) | > 10 µM (inactive) | – | > 10 µM (inactive) | – |
